Read-outs that look alike come from different tables or passages of the source. Where only a bound is given, the exact number is not on record here.

Data on 3 molecules can be found in patent US10413555B2, “Treatment of skin atrophy with a combination of triiodothyroacetic acid (TRIAC) and dehydroepiandrosterone (DHEA)” (TROPHEA DEVELOPMENT AB, priority 2014, dated 2019).

For data set [1] the following is noted: topical corticosteroid, Group III; cited from earlier work.
The subject of the next data set is post-menopausal women. The settings on record: DHEA 1% formulation, topical, facial and hand skin, 4 months, versus vehicle; cited from earlier work.
The test system of another data set is elderly people. The note with it: oral route; cited from earlier work.
A further data set deals with Procollagen I (PINP). Briefly: PINP in suction blister fluid from skin pretreated with betamethasone valerate, then treated with test formulations. It is filed as in vivo, human. The note with it: suction blister fluid after 14 days treatment. The source says:
Six healthy male volunteers aged 40-65 years. Criteria for exclusion are: treatment with systemic or topical glucocorticoids, ongoing serious infections, immunosuppression.
TRIAC and DHEA were obtained from Sigma. They were mixed with Essex cream (Merck) to obtain 4 different study formulations: • A. 0.03% TRIAC in Essex cream • B. 0.03% TRIAC and 2% DHEA in Essex cream • C. Essex cream alone. • D. 2% DHEA in Essex cream
A proof-of-concept, single blinded, open prospective study comparing, TRIAC, DHEA and the combination of the two as compared with non-active treatment on short-term glucocorticoid-induced skin atrophy.
The test area was normal looking abdominal skin in 6 male volunteers. Four different skin areas of 10×10 cm were marked with a permanent marker pen.
All areas were pretreated twice daily with betametasone valerate (Betnovate, GSK) 0.5 gr twice daily for 21 days. Then each test area was treated, with 0.5 gr twice daily of one of the test formulations, for 14 days.
Suction blisters were induced with a disposable device (Dermovac, Ventipress, Lappeeranta, Finland) placed on the test areas and connected to a vacuum pump with a vacuum of approximately 60 mm Hg. Each device produces five suction blisters within approximately one hour. The resulting fluid was collected, using a syringe, and then combined and frozen at −70° C. […]

The subject of the next data set is metabolic effects. The settings on record: cited from earlier work.
Data set [2] deals with patients with skin atrophy on the dorsum of their hands. The settings on record: cited from earlier work.
Another data set deals with psoriasis. The note with it: TRIAC 0.1% ointment; cited from earlier work.
Data set [3] has as its system rats. The note with it: rat, in vivo, 2000 mg/kg; cited from earlier work.
Another data set can be described thus: Ames' test. It is filed as cell-based. An excerpt: (§1) The genotoxic potential of TRIAC has been investigated in the Ames' test and in in vitro chromosome aberration assay in cultured human peripheral lymphocytes.
The subject of the next data set is mice. The note with it: cited from earlier work.
Another data set relates to thyroid hormone levels. The settings on record: cited from earlier work.
Another data set deals with procollagen I and III. The settings on record: cited from earlier work.
Data set [4] deals with rats. The note with it: cited from earlier work.
The test system of data set [5] is cultured human peripheral lymphocytes. Briefly: In vitro chromosome aberration assay. It is filed as cell-based.
Description: as §1

For the molecule `CCCCC(=O)O[C@]1(C(=O)CO)[C@@H](C)C[C@H]2[C@@H]3CCC4=CC(=O)C=C[C@]4(C)[C@@]3(F)[C@@H](O)C[C@@]21C` [Betamethasone valerate], the “potency relative to hydrocortisone” value in data set [1] is recorded as 50-100 times.
For `C[C@]12CC[C@H](O)CC1=CC[C@@H]1[C@@H]2CC[C@]2(C)C(=O)CC[C@@H]12` [DHEA, dehydroepiandrosterone], the “effect on skin aging features” value in the data set on post-menopausal women is “improved skin brightness and counteract papery appearance of the skin and epidermal atrophy”. In the data set with elderly people, the “effect on skin conditions” value is listed as “positive effect”. Besides, in the data set on Procollagen I (PINP), the “PINP concentration, comparison between treatments” value is “only slightly better than treatment with placebo”.
As to `O=C(O)Cc1cc(I)c(Oc2ccc(O)c(I)c2)c(I)c1` [TRIAC, triiodothyroacetic acid], in the data set with metabolic effects (human, in vivo), the “dose necessary to obtain similar metabolic effects, relative to T3” value was “greater than 15 times”; the “dose necessary to obtain similar metabolic effects, relative to T4” value is over 10 times; the “tachycardia compared with T4 or T3” value is “does not evoke tachycardia as effectively as T4 or T3”. Further, the tolerability result in the data set with metabolic effects (oral administration, daily doses of 3.4 mg, up to 3 weeks) is “well tolerated”. For the same molecule, in data set [2] (TRIAC 0.1% cream, after 8 weeks of treatment), the “skin thickness in epidermis and dermis” value was “significantly higher”. For the same molecule, the “effect on glucocorticoid-induced skin atrophy” value in data set [2] (topical, patients treated with potent topical corticosteroids for hand eczema) was “appears to reverse glucocorticoid-induced skin atrophy”. Besides, in the data set with psoriasis, the “effect on psoriasis in comparison with placebo” value is reported as “no statistically significant effects” and the “safety of topical treatment” value is listed as “safe”. Also, the “general toxicity and local irritation” value with rats [3] was “neither any clinical signs of general toxicity nor any local irritation”. Further, the genotoxic potential entry in “Ames' test” was “no genotoxic potential”. In the data set on mice (TRIAC alone, 0.03%), the “skin thickness in mice pretreated with betamethasone valerate” value is reported as “could restore skin thickness”. For the same molecule, the “effect on skin atrophy induced by potent topical glucocorticoids” value with mice (topical administration, mice) is recorded as “prevents skin atrophy”. Further, the “skin thickness of normal skin” value with mice (topical, mice) is listed as “increase skin thickness”. For the same molecule, in the data set on mice (topical, compared with vitamin A and D derivatives), the side effects entry is given as “no side effects were seen”. Besides, the “effects on thyroid hormone levels” value in the data set on thyroid hormone levels (all 3 clinical studies, after 8 weeks treatment) was “no significant effects”. In addition, the other blood analysis result with thyroid hormone levels (clinical studies (15-16)) is given as “normal levels”. Moreover, in the data set with procollagen I and III (TRIAC 0.03% and 0.1% cream, both groups, 7 days after start of treatment, pre-treatment with topical betamethasone 17-valerate), the “procollagen I and III compared to placebo” value is on record as “statistically significant increase”. In the data set on procollagen I and III (TRIAC 0.03% cream, healthy volunteers, skin pretreated with betamethasone valerate), the “PINP synthesis compared to placebo” value is given as “significantly more effective”. Further, in the data set on rats [4] (rat, in vivo, ip), the lowest lethal dose was 100 mg/kg. Also, the LD50 with rats [4] (single dose, intraperitoneal, female rats) is reported as 295 mg/kg. The LD50 in the data set with rats [4] (single dose, intraperitoneal, male rats) is listed as 143 mg/kg. In addition, in the data set with rats [4] (single dose, intraperitoneal, suspended in 0.8% hydroxyl propyl methylcellulose gel, rats), the “no observed effect level (NOEL)” value was 46.4 mg/kg. The genotoxic potential result in [5] is “no genotoxic potential”.

What is called LD50 is the dose expected to kill half of the subjects tested.
